Laboratory results: patent publication US11484029B2, “Method for controlling building-inhabiting pest and composition for controlling building-inhabiting pest” (priority 2017, dated 2022)

Key:
Denken German cockroach = test: Forced contact with treated glass disc; assay type: in vivo, Blattella germanica; details: forcibly brought into contact with glass disc treated at 0.3 μg/cm^2, within 48 hours
Description: The Denken German cockroach had 100% knockdown within 48 hours when forcibly brought into contact with a glass disc that had been treated with the compound of Formula (2) and etofenprox so as to have a concentration of 0.3 μg/cm^2.

[1] = tested on: bed bug (Cimex lectularius); test: Drug efficacy test, topical application (50% lethal dose); assay type: in vivo; details: for 50% lethal dose: female adult, topical application, mortality three days later
Description: (§1) Test drug: a compound represented by Formula (2)
(§2) Test insect: Watarida colony (susceptible strain) of German cockroach (Blattella germanica); Hamamatsu-cho colony (resistant strain) of German cockroach (Blattella germanica); Teikyo University colony (susceptible strain) of bed bug (Cimex lectularius); and Chiba colony (resistant strain) of bed bug (Cimex lectularius),
(§3) Insecticidal test: An acetone solution of a compound represented by Formula (2) was applied to the chest of a target insect female adult by using a topical application device. The mortality was examined six days later for the German cockroach and three days later for the bed bug, and each 50% lethal dose was determined. Further, the resistance ratio was calculated by the following equation. Resistance ratio=50% lethal dose of resistant strain/50% lethal dose of susceptible strain

[2] = tested on: Denken colony (susceptible strain) of German cockroach (Blattella germanica); test: Repellency test (treated vs non-treated shelter); assay type: in vivo; details: 0.3 μg/cm^2, after 7 days
Description: Sample: a compound represented by Formula (2), and etofenprox (control agent)
Test insect: Denken colony (susceptible strain) of German cockroach (Blattella germanica)
Test method: A test compound diluted with acetone was treated and dried on a glass disc having a diameter of 12 cm so as to be 0.3 μg/cm^2. A pet cup having 6 cm in inner diameter×0.5 cm in height was cut so as to have an entrance, and the pet cup was turned over and placed on the glass disc to make a shelter. A non-treated shelter and a drug-treated shelter were placed in the center of an acrylic box having 30 cm×15 cm, well water and rat feed were added as food, and 15 males and 15 females of German cockroach were released. After 7 days, the number of surviving insects, the number of dead insects, the number of agonizing insects, and the habitat were examined. Further, a KD (knockdown) rate and a repellency rate were calculated by the following equations. KD rate (%)=(the number of dead insects+the number of agonizing insects)/the number of released insects×100 Repellency rate (%)=(1−the number of cockroaches in treated area/(the number of cockroaches in treated area+the number of cockroaches in non-treated area)×100

[3] = tested on: Watarida colony (susceptible strain) of German cockroach (Blattella germanica); test: Heat volatilization test; assay type: in vivo; details: 1 g of sample heated at 300° C., after 15 hours
Description: Sample: a compound represented by Formula (2)
Test insect: Watarida colony (susceptible strain) of German cockroach (Blattella germanica)
After 15 hours, examination of life or death was performed on the tested cockroaches, and the fatality rate was calculated.

[4] = tested on: German cockroach (Blattella germanica); test: Drug efficacy test, topical application (50% lethal dose); assay type: in vivo; details: for 50% lethal dose: female adult, topical application, mortality six days later
Description: as §1, §2, §3

| Compound | knockdown (Denken German cockroach) [%] | repellent effect (conclusion in words) [2] | Non-treated shelter Number of agonizing insects ([2]; Total (30 released)) | Non-treated shelter Number of dead insects ([2]; Total (30 released)) | Non-treated shelter Number of surviving insects ([2]; Total (30 released)) | Outside the area Number of agonizing insects ([2]; Total (30 released)) | Outside the area Number of dead insects ([2]; Total (30 released)) | Outside the area Number of surviving insects ([2]; Total (30 released)) | Treated shelter Number of agonizing insects ([2]; Total (30 released)) | Treated shelter Number of dead insects ([2]; Total (30 released)) | Treated shelter Number of surviving insects ([2]; Total (30 released)) | KD rate ([2]; Total) [%] | Non-treated shelter Number of agonizing insects ([2]; female (15 released)) | Non-treated shelter Number of dead insects ([2]; female (15 released)) | Non-treated shelter Number of surviving insects ([2]; female (15 released)) | Outside the area Number of agonizing insects ([2]; female (15 released)) | Outside the area Number of dead insects ([2]; female (15 released)) | Outside the area Number of surviving insects ([2]; female (15 released)) | Treated shelter Number of agonizing insects ([2]; female (15 released)) | Treated shelter Number of dead insects ([2]; female (15 released)) | further results |
| --- | --- | --- | --- | --- | --- | --- | --- | --- | --- | --- | --- | --- | --- | --- | --- | --- | --- | --- | --- | --- | --- |
| CCOc1ccc(C(C)(C)COCc2cccc(Oc3ccccc3)c2)cc1 [Etofenprox, etofenprox] | 100 | has a repellent effect | 0 | 0 | 29 | 0 | 1 | 0 | 0 | 0 | 0 | 3 | 0 | 0 | 15 | 0 | 0 | 0 | 0 | 0 | Resistance ratio ([1]; etofenprox to bed bugs, strains not stated): ≥ 10000; Repellency rate ([2]; Total): 100%; Treated shelter Number of surviving insects ([2]; female (15 released)): 0; KD rate ([2]; female): 0%; Repellency rate ([2]; female): 100%; Non-treated shelter Number of agonizing insects ([2]; male (15 released)): 0; Non-treated shelter Number of dead insects ([2]; male (15 released)): 0; Non-treated shelter Number of surviving insects ([2]; male (15 released)): 14; Outside the area Number of agonizing insects ([2]; male (15 released)): 0; Outside the area Number of dead insects ([2]; male (15 released)): 1; Outside the area Number of surviving insects ([2]; male (15 released)): 0; Treated shelter Number of agonizing insects ([2]; male (15 released)): 0; Treated shelter Number of dead insects ([2]; male (15 released)): 0; Treated shelter Number of surviving insects ([2]; male (15 released)): 0; KD rate ([2]; male): 7%; Repellency rate ([2]; male): 100% |
| CN(C(=O)c1ccccc1)c1cccc(C(=O)Nc2c(Br)cc(C(F)(C(F)(F)F)C(F)(F)F)cc2C(F)(F)F)c1F [Compound represented by Formula (2), 2-fluoro-3-(N-methylbenzamide)-N-(2-bromo-6-trifluoromethyl-4-(heptafluoropropane-2-yl)phenyl)benzamide] | 100 | has no repellent effect | 0 | 0 | 0 | 3 | 27 | 0 | 0 | 0 | 0 | 100 | 0 | 0 | 0 | 2 | 13 | 0 | 0 | 0 | fatality rate ([3]; inside the slit box): 100%; fatality rate ([3]; outside the slit box): 100%; Resistance ratio ([4]; 50% lethal dose of resistant strain (Hamamatsu-cho)/susceptible strain (Watarida)): 1.9; 50% lethal dose ([4]; Hamamatsu-cho colony (resistant strain)): 21.5 ng/insect; 50% lethal dose ([4]; Watarida colony (susceptible strain)): 11.2 ng/insect; Resistance ratio ([1]; 50% lethal dose of resistant strain (Chiba)/susceptible strain (Teikyo University)): 11.4; 50% lethal dose ([1]; Chiba colony (resistant strain)): 14.8 ng/insect; 50% lethal dose ([1]; Teikyo University colony (susceptible strain)): 1.3 ng/insect; Treated shelter Number of surviving insects ([2]; female (15 released)): 0; KD rate ([2]; female): 100%; Non-treated shelter Number of agonizing insects ([2]; male (15 released)): 0; Non-treated shelter Number of dead insects ([2]; male (15 released)): 0; Non-treated shelter Number of surviving insects ([2]; male (15 released)): 0; Outside the area Number of agonizing insects ([2]; male (15 released)): 1; Outside the area Number of dead insects ([2]; male (15 released)): 14; Outside the area Number of surviving insects ([2]; male (15 released)): 0; Treated shelter Number of agonizing insects ([2]; male (15 released)): 0; Treated shelter Number of dead insects ([2]; male (15 released)): 0; Treated shelter Number of surviving insects ([2]; male (15 released)): 0; KD rate ([2]; male): 100% |
